Experimental data: patent publication US6358885B1, “Substituted phenylheterocyclic herbicides” (Mississippi State University, priority 1992, dated 2002)

What was measured:
Experiment in all cases: Test B preemergence/postemergence greenhouse plant response rating 0 to 10
purple nutsedge = type: in vivo, Cyperus rotundus; details: 0 to 10 scale
Outline: (§1)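 Postemergence treatment of plants two to eighteen cm tall ran alongside preemergence treatment of planted seed, each using compound in a non-phytotoxic solvent.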

cocklebur = type: in vivo, Xanthium pensylvanicum; details: for Plant response rating, Cocklebur: 0 to 10 scale
Outline: as §1

soybean = type: in vivo, Glycine max; details: 0 to 10 scale
Outline: as §1

rice = type: in vivo, Oryza sativa; details: 0 to 10 scale
Outline: as §1

wild buckwheat = type: in vivo, Polygonum convolvulus; details: 0 to 10 scale
Outline: as §1

Structure (SMILES)	Plant response rating, Nutsedge (purple nutsedge; POSTEMERGENCE, Rate 50 g/ha)	Plant response rating, Nutsedge (purple nutsedge; POSTEMERGENCE, Rate 200 g/ha)	Plant response rating, Nutsedge (purple nutsedge; PREEMERGENCE, Rate 50 g/ha)	Plant response rating, Nutsedge (purple nutsedge; Rate 200 g/ha, PREEMERGENCE)	Plant response rating (0 to 10 scale), Cocklebur (cocklebur; POSTEMERGENCE, Rate 50 g/ha)	Plant response rating, Cocklebur (cocklebur; POSTEMERGENCE, Rate 200 g/ha)	Plant response rating, Cocklebur (cocklebur; PREEMERGENCE, Rate 50 g/ha)	Plant response rating, Cocklebur (cocklebur; Rate 200 g/ha, PREEMERGENCE)	Plant response rating, Soybean (soybean; POSTEMERGENCE, Rate 50 g/ha)	Plant response rating, Soybean (soybean; POSTEMERGENCE, Rate 200 g/ha)	Plant response rating, Soybean (soybean; PREEMERGENCE, Rate 50 g/ha)	Plant response rating, Soybean (soybean; Rate 200 g/ha, PREEMERGENCE)	Plant response rating, Rice (rice; POSTEMERGENCE, Rate 50 g/ha)	Plant response rating, Rice (rice; POSTEMERGENCE, Rate 200 g/ha)	Plant response rating, Rice (rice; PREEMERGENCE, Rate 50 g/ha)	Plant response rating, Rice (rice; Rate 200 g/ha, PREEMERGENCE)	Plant response rating, Wild buckwheat (wild buckwheat; POSTEMERGENCE, Rate 50 g/ha)	Plant response rating, Wild buckwheat (wild buckwheat; POSTEMERGENCE, Rate 200 g/ha)	Plant response rating, Wild buckwheat (wild buckwheat; PREEMERGENCE, Rate 50 g/ha)	Plant response rating, Wild buckwheat (wild buckwheat; Rate 200 g/ha, PREEMERGENCE)
Fc1cc(Cl)c(OCc2ccccc2)cc1-c1nn2c(c1Cl)CCCC2 [Compound 22]	2	2	0	0	7	8	0	1	5	6	0	2	4	5	0	2	10	10	2	5
CCCOc1cc(-c2nn3c(c2Cl)CCCC3)c(F)cc1Cl [Compound 23]	2	3	0	0	8	10	0	8	8	9	1	7	4	6	0	2	10	10	0	10
Fc1cc(Cl)c(OC2CCCC2)cc1-c1nn2c(c1Cl)CCCC2 [Compound 24]	3	4	0	0	8	9	0	1	6	8	0	2	5	5	0	0	10	10	3	5
CCS(=O)(=O)Oc1cc(-c2nn3c(c2Cl)CCCC3)c(F)cc1Cl [Compound 25]	2	8	0	0	7	8	0	1	8	4	0	0	4	9	0	0	10	10	8	10
